Experimental data: patent US20240261224A1, “FORMULATION OF A PAN-JAK INHIBITOR” (KINASET THERAPEUTICS, INC., priority 2022, published 2024)

How the values were obtained:
[1] = Margin of safety study versus 13-wk rat NOAEL; type: in vivo
Description: Results from the margin of safety study of lactose/MgSt-based formulations of Compound I are shown below in Table 17.

[2] = Phase 1 Part 2 plasma pharmacokinetics (mild asthma); type: in vivo, human; settings: Day 10
Description: Day 10 pharmacokinetic parameters for Parts 2 and 3 of Phase I are summarized below in Table 28. Part 2 involved the administration of 4 different dose regimens, to subjects with mild asthma naïve to ICS therapy, over a 10-day period. Each separate cohort comprised 6 subjects receiving active treatment with 2 receiving matching placebo. Blood samples were collected to enable the measurement of Compound I concentrations in plasma. The resultant data was used to determine the PK parameters at Day 10 representing the Day on which the final dose was received.

[3] = 4.0 mg BID vs 13-week rat study

Cn1c(=O)n([C@H]2CCCN(C(=O)CC#N)C2)c2nc(-c3cnn4ccccc34)ccc21 [Compound I, (S)-3-(3-(1-methyl-2-oxo-5-(pyrazolo[1,5-a]pyridine-3-yl)-1H-imidazo[4,5-b]pyridine-3(2H)-yl)piperidin-1-yl)-3-oxopropanenitrile]
MoS versus inhalation toxicology study NOAELs, Lung exposure (mg/g lung) [1, 3]: 3925
MoS versus inhalation toxicology study NOAELs, Plasma (group mean AUC0-24) [1, 3]: 85.6
Group mean AUC0-24 MoS (Phase 1 clinical study versus inhalation tox study NOAELs) ([1]; 4.0 mg BID vs 13-wk rat NOAEL): 5.6
Lung dose of Compound I (mg/g) MoS ([1]; 4.0 mg BID vs 13-wk rat NOAEL, adjusted for respirability assuming 10%, 25% and 100% lung deposition in rat, NHP and human): 25
AUC0-12 hours Max ([2]; 0.6 mg QD): 23,507 pg · h/ml
AUC0-12 hours Min ([2]; 0.6 mg QD): 7,596 pg · h/ml
AUC0-24 hours Max ([2]; 0.6 mg QD): 36,466 pg · h/ml
AUC0-24 hours Min ([2]; 0.6 mg QD): 8,579 pg · h/ml
AUC0-last non-zero Max ([2]; 0.6 mg QD): 47,928 pg · h/ml
AUC0-last non-zero Min ([2]; 0.6 mg QD): 8,579 pg · h/ml
AUC0-∞ Max ([2]; 0.6 mg QD): 52,842 pg · h/ml
AUC0-∞ Min ([2]; 0.6 mg QD): 8,783 pg · h/ml
AUCover dosing interval Max ([2]; 0.6 mg QD): 36,466 pg · h/ml
AUCover dosing interval Min ([2]; 0.6 mg QD): 8,579 pg · h/ml
Cmax Max ([2]; 0.6 mg QD): 2,750 pg/ml
Cmax Min ([2]; 0.6 mg QD): 1,020 pg/ml
Ctrough Geometric mean ([2]; 0.6 mg QD): 234 pg/mL
Ctrough Max ([2]; 0.6 mg QD): 913 pg/mL
Ctrough Mean ([2]; 0.6 mg QD): 362 pg/mL
Ctrough Min ([2]; 0.6 mg QD): 34 pg/mL
AUC0-12 hours Max ([2]; 2 mg QD): 88,203 pg · h/ml
AUC0-12 hours Min ([2]; 2 mg QD): 30,807 pg · h/ml
AUC0-24 hours Max ([2]; 2 mg QD): 125,837 pg · h/ml
AUC0-24 hours Min ([2]; 2 mg QD): 42,693 pg · h/ml
AUC0-last non-zero Max ([2]; 2 mg QD): 143,585 pg · h/ml
AUC0-last non-zero Min ([2]; 2 mg QD): 48,931 pg · h/ml
AUC0-∞ Max ([2]; 2 mg QD): 145,552 pg · h/ml
AUC0-∞ Min ([2]; 2 mg QD): 50,025 pg · h/ml
AUCover dosing interval Max ([2]; 2 mg QD): 125,837 pg · h/ml
AUCover dosing interval Min ([2]; 2 mg QD): 42,693 pg · h/ml
Cmax Max ([2]; 2 mg QD): 9,630 pg/ml
Cmax Min ([2]; 2 mg QD): 4,160 pg/ml
Ctrough Geometric mean ([2]; 2 mg QD): 929 pg/mL
Ctrough Max ([2]; 2 mg QD): 1,370 pg/ml
Ctrough Mean ([2]; 2 mg QD): 970 pg/mL
Ctrough Min ([2]; 2 mg QD): 536 pg/mL
AUC0-12 hours Max ([2]; 4 mg BID): 373,995 pg · h/ml
AUC0-12 hours Min ([2]; 4 mg BID): 39,111 pg · h/ml
AUC0-24 hours Max ([2]; 4 mg BID): 473,634 pg · h/ml
AUC0-24 hours Min ([2]; 4 mg BID): 43,350 pg · h/ml
AUC0-last non-zero Max ([2]; 4 mg BID): 586,513 pg · h/ml
AUC0-last non-zero Min ([2]; 4 mg BID): 43,356 pg · h/ml
AUC0-∞ Max ([2]; 4 mg BID): 587,424 pg · h/ml
AUC0-∞ Min ([2]; 4 mg BID): 44,654 pg · h/ml
AUCover dosing interval Max ([2]; 4 mg BID): 373,995 pg · h/ml
AUCover dosing interval Min ([2]; 4 mg BID): 39,111 pg · h/ml
Cmax Max ([2]; 4 mg BID): 47,800 pg/ml
Cmax Min ([2]; 4 mg BID): 7,750 pg/ml
Ctrough Geometric mean ([2]; 4 mg BID): 6,983 pg/ml
Ctrough Max ([2]; 4 mg BID): 15,600 pg/ml
Ctrough Mean ([2]; 4 mg BID): 10,001 pg/ml
Ctrough Min ([2]; 4 mg BID): 563 pg/mL
AUC0-12 hours Max ([2]; 8 mg BID): 830,085 pg · h/ml
AUC0-12 hours Min ([2]; 8 mg BID): 260,305 pg · h/ml
AUC0-24 hours Max ([2]; 8 mg BID): 1,140,247 pg · h/ml
AUC0-24 hours Min ([2]; 8 mg BID): 309,050 pg · h/ml
AUC0-last non-zero Max ([2]; 8 mg BID): 1,369,314 pg · h/ml
AUC0-last non-zero Min ([2]; 8 mg BID): 358,137 pg · h/ml
AUC0-∞ Max ([2]; 8 mg BID): 1,369,630 pg · h/ml
AUC0-∞ Min ([2]; 8 mg BID): 358,998 pg · h/ml
AUCover dosing interval Max ([2]; 8 mg BID): 830,085 pg · h/ml
AUCover dosing interval Min ([2]; 8 mg BID): 260,305 pg · h/ml
Cmax Max ([2]; 8 mg BID): 91,500 pg/ml
Cmax Min ([2]; 8 mg BID): 45,400 pg/ml
Ctrough Geometric mean ([2]; 8 mg BID): 17,666 pg/ml
Ctrough Max ([2]; 8 mg BID): 40,600 pg/ml
Ctrough Mean ([2]; 8 mg BID): 21,835 pg/ml
Ctrough Min ([2]; 8 mg BID): 6,090 pg/ml
